# In patent publication US9359645B2, “Methods for detecting diabetic nephropathy comprising measuring the expression of Smad1” (HUBIT GENOMIX INC., priority 2003, dated 2016):
# Test system: Smad1
# Assay: Smad1 morpholino antisense oligonucleotide in AGEs-treated mesangial cells (Smad1 and Col4 expression)
# Format: cell-based, mouse
# Settings: for AGEs-mediated overproduction (overexpression) of Col4: mesangial cells treated with AGEs; for AGEs-mediated induction of Smad1: mesangial cells, 72 hr AGEs then 16 hr with oligo
# Experimental: A glomerular mesangial cell strain was established from glomeruli isolated from normal, 4 week-old mice (C57BL/6JxSJL/J), and was identified according to the method previously described (S1). The mesangial cells were cultured in B medium (a 3:1 mixture of minimal essential medium/F12 modified with trace elements) supplemented with 1 mM glutamine, 100 units/ml penicillin, […] streptomycin and 20% fetal calf serum. The cultured cells fulfilled the criteria generally accepted for glomerular mesangial cells (S2). AGEs or BSA exposure was carried out as described previously (S3).
# Mesangial cells were cultured in the presence of AGEs or BSA (as control) for 72 hours. Cells were harvested in sample buffer, resolved by SDS-polyacrylamide gel electrophoresis and transferred to nitro-cellulose membrane and subjected to Western blot using a 1:500 dilution of anti-Smad1 antibody and anti-pSmad1 antibody (Santa Cruz Biotechnology), followed by detection using an enhanced chemiluminescence detection system (Invitrogen, Carlsbad, Calif.).
# Cultured cells were fixed in 4% paraformaldehyde. The following antibodies were used: anti-Smad1 antibody, 1:100 (Santa Cruz Biotechnology); anti-pSmad1 antibody, 1:100 (Calbiochem). An appropriate fluoresceine isothiocyanate-conjugated secondary antibody was used for visualization and imaging was done using a laser microscope and a fluorescent microscope (Olympus, Tokyo, Japan).
# The antisense oligonucleotide used was a 25-nucleotide morpholino oligo (Genetools LLC, Philomath, Oreg.). The sequence is 5′-[…]-3′ (SEQ ID NO: 13). As a control, an oligo with the base composition 5′-CAtGCTcGTCACATTCAaAGCcGCT-3′ (SEQ ID NO: 18) was used. In vitro RNA transcription was performed as previously described (S7).
Substance,AGEs-mediated overproduction (overexpression) of Col4,AGEs-mediated induction of Smad1
"antisense oligo to Smad1: 25-nucleotide morpholino oligo, 5′-CAAGCTGGTCACATTCATAGCGGCT-3′ (SEQ ID NO: 13) (all phosphorodiamidate morpholino (PMO))",remarkably attenuates,completely abolished
"Smad1 mismatch oligo: control oligo 5′-CAtGCTcGTCACATTCAaAGCcGCT-3′ (SEQ ID NO: 18) (CATGCTCGTCACATTCAAAGCCGCT; listed as DNA, chemistry not given here)",no effect,not
